From ChEMBL document CHEMBL6121052, “Design of ROS-Triggered Sesquiterpene Lactone SC Prodrugs as TrxR1 Covalent Inhibitors for the Treatment of Non-Small Cell Lung Cancer” (J Med Chem, 2025) come the findings set out here.

Experiment [1] concerns A549. Nature of the experiment: Cytotoxicity against human A549 cells assessed as cell viability incubated for 48 hrs by MTT assay. It counts as functional, cell-based. The note with it: A549, 48 h. On the technique in general: Tetrazolium dyes change colour on reduction, which living cells bring about.
Experiment [2] concerns NCI-H460. Nature of the experiment: Cytotoxicity against human NCI-H460 cells assessed as cell viability incubated for 48 hrs by MTT assay. The settings on record: NCI-H460, 48 h. The class given is functional, cell-based.

Consider `C/C1=C\[C@@H](OC(=O)/C=C/c2ccccc2)[C@H]2[C@H](CC3=C[C@H](C1)OC3=O)OC(=O)[C@@H]2CSCCCCCCCCCCSC[C@H]1C(=O)O[C@H]2CC3=C[C@H](C/C(C)=C/[C@@H](OC(=O)/C=C/c4ccccc4)[C@@H]21)OC3=O`, for which the IC50 in experiment [1] and in experiment [2] was more than 25 µM each time.

For the compound `C/C1=C\[C@@H](OC(=O)c2ccccc2)[C@H]2[C@H](CC3=C[C@H](C1)OC3=O)OC(=O)[C@@H]2CSCc1ccc(Cl)cc1`, the IC50 in experiment [1] and in experiment [2] was more than 25 µM each time.

Take `C/C1=C\[C@@H](O)[C@H]2[C@H](CC3=C[C@H](C1)OC3=O)OC(=O)[C@@H]2CSCCCCCCCCCCSC[C@H]1C(=O)O[C@H]2CC3=C[C@H](C/C(C)=C/[C@@H](O)[C@@H]21)OC3=O`: the 50% inhibitory concentration (IC50) in experiment [1] and in experiment [2] was more than 25 µM in each case.

Consider `C/C1=C\[C@@H](OC(=O)C2CC2)[C@H]2[C@H](CC3=C[C@H](C1)OC3=O)OC(=O)[C@@H]2CSCc1ccc(Cl)cc1`, for which the IC50 in experiment [1] and in experiment [2] was more than 25 µM each time.

Regarding `C/C1=C\[C@@H](OC(=O)/C=C/c2ccccc2)[C@H]2[C@H](CC3=C[C@H](C1)OC3=O)OC(=O)[C@@H]2CSCc1ccc(Cl)cc1`, the IC50 in experiment [1] and in experiment [2] was more than 25 µM throughout.

On to `C/C1=C\[C@@H](OC(=O)C2CC2)[C@H]2[C@H](CC3=C[C@H](C1)OC3=O)OC(=O)[C@@H]2CSC(=S)N1CCOCC1`, for which the IC50 (commonly the point on the concentration scale where inhibition reaches its midpoint) in experiment [1] was 0.83 µM; in experiment [2] it was more than 25 µM.

For `C/C1=C\[C@@H](OC(=O)/C=C/c2ccccc2)[C@H]2[C@H](CC3=C[C@H](C1)OC3=O)OC(=O)[C@@H]2CSCCCCCCSC[C@H]1C(=O)O[C@H]2CC3=C[C@H](C/C(C)=C/[C@@H](OC(=O)/C=C/c4ccccc4)[C@@H]21)OC3=O`, the IC50 in experiment [1] and in experiment [2] was more than 25 µM in each case.

Regarding `C/C1=C\[C@@H](OC(=O)c2ccccc2)[C@H]2[C@H](CC3=C[C@H](C1)OC3=O)OC(=O)[C@@H]2CSCCCCCSC[C@H]1C(=O)O[C@H]2CC3=C[C@H](C/C(C)=C/[C@@H](OC(=O)c4ccccc4)[C@@H]21)OC3=O`, the IC50 in experiment [1] and in experiment [2] was more than 25 µM in each case.

With `C/C1=C\[C@@H](OC(=O)c2ccccc2)[C@H]2[C@H](CC3=C[C@H](C1)OC3=O)OC(=O)[C@@H]2CSc1ccc(F)cc1`, the IC50 in experiment [1] was 7.18 µM; in experiment [2] it was more than 25 µM.

Regarding `C/C1=C\[C@@H](OC(=O)c2ccccc2)[C@H]2[C@H](CC3=C[C@H](C1)OC3=O)OC(=O)[C@@H]2CSc1ccc(C(F)(F)F)cc1`, the IC50 in experiment [1] was found to be 3.74 µM; in experiment [2] it was 24.4 µM.

`C/C1=C\[C@@H](O)[C@H]2[C@H](CC3=C[C@H](C1)OC3=O)OC(=O)[C@@H]2CSc1ccc(Br)cc1`: the IC50 is 15.2 µM in experiment [1] and more than 25 µM in experiment [2].

Consider `C/C1=C\[C@@H](O)[C@H]2[C@H](CC3=C[C@H](C1)OC3=O)OC(=O)[C@@H]2CSc1ccc(Cl)cc1`, for which the IC50 in experiment [1] and in experiment [2] was more than 25 µM each time.

For `C/C1=C\[C@@H](OC(=O)c2ccccc2)[C@H]2[C@H](CC3=C[C@H](C1)OC3=O)OC(=O)[C@@H]2CSc1cccc(F)c1`, the IC50 in experiment [1] is 6.17 µM; in experiment [2], more than 25 µM.

As to `C/C1=C\[C@@H](OC(=O)C2CC2)[C@H]2[C@H](CC3=C[C@H](C1)OC3=O)OC(=O)[C@@H]2CSc1ccc(SC[C@H]2C(=O)O[C@H]3CC4=C[C@H](C/C(C)=C/[C@@H](OC(=O)C5CC5)[C@@H]32)OC4=O)cc1`, the results for the IC50 in experiment [1] and in experiment [2] were 1.15 µM and more than 25 µM, respectively.

Consider `C/C1=C\[C@@H](OC(=O)C2CC2)[C@H]2[C@H](CC3=C[C@H](C1)OC3=O)OC(=O)[C@@H]2CSc1nc2ccccc2s1`, for which the half-inhibitory concentration (IC50) was 17.2 µM in experiment [1] and more than 25 µM in experiment [2].

With `C/C1=C\[C@@H](OC(=O)/C=C/c2ccccc2)[C@H]2[C@H](CC3=C[C@H](C1)OC3=O)OC(=O)[C@@H]2CSc1cccc(F)c1`, the IC50 was 15.6 µM in experiment [1] and more than 25 µM in experiment [2].

Consider `C/C1=C\[C@@H](OC(=O)/C=C/c2ccccc2)[C@H]2[C@H](CC3=C[C@H](C1)OC3=O)OC(=O)[C@@H]2CSc1nc2ccccc2s1`, for which the IC50 in experiment [1] and in experiment [2] was more than 25 µM throughout.

For the compound `C/C1=C\[C@@H](OC(=O)/C=C/c2ccccc2)[C@H]2[C@H](CC3=C[C@H](C1)OC3=O)OC(=O)[C@@H]2CSC1CCCCC1`, the IC50 in experiment [1] and in experiment [2] was more than 25 µM throughout.

For the compound `CCCCCSC[C@H]1C(=O)O[C@H]2CC3=C[C@H](C/C(C)=C/[C@@H](O)[C@@H]21)OC3=O`, the IC50 in experiment [1] and in experiment [2] was more than 25 µM throughout.

Regarding `C/C1=C\[C@@H](O)[C@H]2[C@H](CC3=C[C@H](C1)OC3=O)OC(=O)[C@@H]2CSCc1ccc(Cl)cc1`, the IC50 in experiment [1] and in experiment [2] was more than 25 µM each time.

`CCCCCSC[C@H]1C(=O)O[C@H]2CC3=C[C@H](C/C(C)=C/[C@@H](OC(=O)C4CC4)[C@@H]21)OC3=O`: the 50% inhibitory concentration (IC50) in experiment [1] and in experiment [2] was more than 25 µM each time.

With `C/C1=C\[C@@H](OC(=O)/C=C/c2ccccc2)[C@H]2[C@H](CC3=C[C@H](C1)OC3=O)OC(=O)[C@@H]2CSc1ccc(F)cc1`, the IC50 was 11.3 µM in experiment [1] and more than 25 µM in experiment [2].

For `C/C1=C\[C@@H](OC(=O)c2ccccc2)[C@H]2[C@H](CC3=C[C@H](C1)OC3=O)OC(=O)[C@@H]2CSc1ccc(Br)cc1`, the IC50 in experiment [1] was 8.85 µM; in experiment [2], more than 25 µM.

With `C/C1=C\[C@@H](OC(=O)/C=C/c2ccccc2)[C@H]2[C@H](CC3=C[C@H](C1)OC3=O)OC(=O)[C@@H]2CSc1ccc(Br)cc1`, the half-maximal inhibitory concentration (IC50) in experiment [1] was 11.8 µM; in experiment [2] it was more than 25 µM.

Take `C/C1=C\[C@@H](OC(=O)C2CC2)[C@H]2[C@H](CC3=C[C@H](C1)OC3=O)OC(=O)[C@@H]2CSCCOCCOCCSC[C@H]1C(=O)O[C@H]2CC3=C[C@H](C/C(C)=C/[C@@H](OC(=O)C4CC4)[C@@H]21)OC3=O`: the values for the IC50 in experiment [1] and in experiment [2] were 13.2 µM and more than 25 µM, respectively.

Take `C/C1=C\[C@@H](OC(=O)/C=C/c2ccccc2)[C@H]2[C@H](CC3=C[C@H](C1)OC3=O)OC(=O)[C@@H]2CSc1ccc(Cl)cc1`: the IC50 in experiment [1] was 7.5 µM; in experiment [2], more than 25 µM.

On to `C/C1=C\[C@@H](OC(=O)c2ccccc2)[C@H]2[C@H](CC3=C[C@H](C1)OC3=O)OC(=O)[C@@H]2CSc1ccc([N+](=O)[O-])cc1`, for which the IC50 in experiment [1] is 2.59 µM; in experiment [2], more than 25 µM.

`COc1ccc(SC[C@H]2C(=O)O[C@H]3CC4=C[C@H](C/C(C)=C/[C@@H](OC(=O)/C=C/c5ccccc5)[C@@H]32)OC4=O)cc1`: the IC50 in experiment [1] was 14 µM; in experiment [2], more than 25 µM.

For the compound `COc1ccc(SC[C@H]2C(=O)O[C@H]3CC4=C[C@H](C/C(C)=C/[C@@H](OC(=O)c5ccccc5)[C@@H]32)OC4=O)cc1`, the IC50 in experiment [1] is 9.67 µM; in experiment [2], more than 25 µM.
